# In ChEMBL document CHEMBL4145566, “Isoindolinones, Phthalides, and a Naphthoquinone from the Fruiting Body of Daldinia concentrica” (J Nat Prod, 2018):
# System: HUVEC
# Experiment: Antiangiogenic activity in HUVEC assessed as inhibition of cell proliferation after 18 hrs by WST-8 reagent based assay
# Type: functional
# Details: Homo sapiens
row,SMILES,IC50 [µM]
1,C=C1[C@@H](C)[C@H]2[C@H](Cc3ccccc3)NC(=O)[C@]23OC(=O)/C=C/[C@@H](O)CCC[C@@H](C)C/C=C/[C@H]3[C@@H]1O,0.2
2,COc1cccc2c1C(=O)C(=O)C=C2c1ccc(O)c2c(OC)cccc12,7.5
